System: JAK kinase (JAK1 and JAK3)
Assay: IL-4 activation assay: CD23 upregulation in IL-4 stimulated Ramos B-cells, FACS
Assay type: cell-based, human
Description: The selectivity of the compounds illustrated in TABLES 1 and 2 for JAK kinases as compared to Syk kinase was confirmed in cellular assays designed to test for JAK and Syk inhibition. Briefly, JAK inhibition was tested in human Ramos B-cells activated with IL-4. Twenty to 24 hours post stimulation, the cells are stained for upregulation of CD23 and analyzed by FACS. Stimulation of the B-cells with IL-4 leads to the activation of the JAK/STAT pathway through phosphorylation of the JAK kinase JAK1 and JAK3, which in turn phosphorylate and activate transcription of factor […].
For the assay, human Ramos B-cells (ATCC, Catalog No. CRL-1596) are cultured in RPMI 1640 medium (Cellgro, Catalog No. 10-040-CM) containing 10% fetal bovine serum (JRH, Catalog No. 12106-500M) according to the propagation protocol supplied with the cells, and maintained at a density of approximately 3.5×10^5 cells/ml. The day before the assay, the cells are diluted to 3.5×10^5 cells/ml to insure they are in the logorithmic growth phase. The cells are spun down, and suspended in RPMI 1640 medium containing 5% fetal bovine serum to a density of 3.5×10^4 cells/ml and aliquots dispensed into a 96-well tissue culture plate. Cells are incubated with test compound (dissolved in DMSO) or DMSO (control) for 1 hr at 37° C. and then stimulated with IL-4 (Pepotech, Catalog No. 200-04) for 20-24 hours (final concentration is 50 Units/ml). Cells are then spun down, stained with anti-CD23-PE antibody (BD Pharmigen, Catalog No.555711) and analyzed by FACS.

[1] = TABLE 2, IC50 CHMC degranulation (tryptase) / IC50 IL-4 Ramos CD23
[2] = TABLE 1, IC50 CHMC degranulation / IC50 IL-4 Ramos CD23, minimum ratio, calculated using Syk IC50 of 50 μM (upper limit of assay)

Compound | IC50 Ratio (Syk/JAK) [1] | IC50 Ratio (Syk/JAK) [2]
COc1ccc(Nc2nc(Nc3cc(Cl)c(O)c(Cl)c3)ncc2F)cc1Cl [Cmpd 80] | 11 | 
CNC(=O)CNC(=O)c1ccc(Nc2ncc(F)c(Nc3ccc4c(c3)C(N)CCO4)n2)cc1 (stereo not shown) [Cmpd 53] | 24 | 
O=C1Nc2ccc(Nc3nc(Nc4cccc(-c5ncco5)c4)ncc3F)cc2OC1CCO (stereo not shown) [Cmpd 57] | 21 | 
C[C@@H]1Oc2ccc(Nc3nc(Nc4ccc(CN)cc4)ncc3F)cc2NC1=O [Cmpd 37] | 42 | 
NCc1cccc(Nc2ncc(F)c(Nc3cccc(CN)c3)n2)c1 [Cmpd 44] | 30 | 
Cc1noc(COc2ccc(Nc3nc(Nc4cc(Cl)c(O)c(Cl)c4)ncc3F)cc2)n1 [Cmpd 4] |  | 145
CCN(CC)CNC(=O)c1ccc(Nc2ncc(F)c(Nc3ccc4c(c3)C(=O)NC(=O)C4(C)C)n2)cc1 [Cmpd 65] | 18 | 
Cc1cc(Nc2ncc(F)c(N[C@@H]3CC=CC[C@H]3C(N)=O)n2)ccc1N1CCN(C)CC1 [Cmpd 14] |  | 25
Fc1cnc(Nc2cccc(-c3ncco3)c2)nc1Nc1cc(C2CC2)n[nH]1 [Cmpd 29] | 109 | 
CNC(=O)C1=Cc2cccc(Nc3ncc(F)c(Nc4cc(C)cc(C)c4)n3)c2C1 [Cmpd 13] |  | 26
Cc1cc(Nc2nc(Nc3ccc(C(N)=O)cc3)ncc2F)ccc1N1CCN(C)CC1 [Cmpd 28] | 146 | 
CN1CCN(c2ccc(Nc3ncc(F)c(NC4CCCC4C(N)=O)n3)cc2Cl)CC1 (stereo not shown) [Cmpd 87] | 10 | 
CNC(=O)COc1cccc(Nc2ncc(F)c(Nc3ccc(OC)c(C(=O)OC)c3)n2)c1 [Cmpd 68] | 16 | 
CNC(=O)COc1cccc(Nc2ncc(F)c(Nc3ccc4c(c3)C(N(C)C(=O)OC(C)(C)C)CCO4)n2)c1 (stereo not shown) [Cmpd 86] | 10 | 
COC(=O)c1ccc(Nc2ncc(F)c(Nc3ccc(C(=O)OC)cc3)n2)cc1 [Cmpd 61] | 20 | 
CCN(CC)CCNC(=O)c1ccc(Nc2ncc(F)c(Nc3ccc(Cl)c(Cl)c3)n2)cc1 [Cmpd 59] | 21 | 
O=C1Nc2cc(Nc3nc(Nc4ccc(-c5cnco5)cc4)ncc3F)ccc2OC1CCO (stereo not shown) [Cmpd 79] | 12 | 
COC(=O)c1cc(Nc2ncc(F)c(Nc3ccc4c(c3)OCCO4)n2)cc(-c2ncco2)c1 [Cmpd 5] |  | 105
Cc1cc(Nc2ncc(F)c(NC3CCCC3)n2)cnc1N1CCN(C)CC1 [Cmpd 77] | 13 | 
CCN1CCN(c2ccc(Nc3ncc(F)c(NC4CC(C)(C)N(C)C(C)(C)C4)n3)cn2)CC1 [Cmpd 23] |  | 12
CNC(=O)COc1cccc(Nc2ncc(F)c(Nc3cccc(OC(=O)N(C(=O)NC(C)C)C(C)C)c3)n2)c1 [Cmpd 71] | 15 | 
Fc1ccc(Nc2ncc(F)c(Nc3ccc4c(c3)OCCO4)n2)cc1Cl [Cmpd 24] |  | 12
COC(=O)CNC(=O)c1ccc(Nc2nc(Nc3cccc(O)c3)ncc2F)cc1 [Cmpd 88] | 10 | 
CN1CCN(c2ccc(Nc3ncc(F)c(NC4CCCC4)n3)cc2Cl)CC1 [Cmpd 72] | 14 | 

Compound | IC50 Ratio (Syk/JAK) [1] | IC50 Ratio (Syk/JAK) [2]
CNC(=O)Cn1ncc2ccc(Nc3nc(Nc4ccc5c(c4)OCCO5)ncc3F)cc21 [Cmpd 84] | 10 | 
CN1CCN(c2cccc(Nc3ncc(F)c(Nc4ccc5c(n4)NCCO5)n3)c2)CC1 [Cmpd 40] | 32 | 
CCN(CC)CCNC(=O)c1ccc(Nc2ncc(F)c(Nc3ccc(OCc4nc(C)no4)cc3)n2)cc1 [Cmpd 34] | 55 | 
NC(=O)c1ccc(Nc2ncc(F)c(NC3CCCC3)n2)cc1 [Cmpd 6] |  | 70
CCN(CC)CCNC(=O)c1ccc(Nc2ncc(F)c(Nc3ccc4c(c3)NC(=O)[C@H](C)O4)n2)cc1 [Cmpd 27] | 247 | 
CCOC(=O)c1cnc(Nc2ccc3[nH]ncc3c2)nc1Nc1ccc2[nH]ncc2c1 [Cmpd 10] |  | 43
CNC(=O)CNC(=O)c1ccc(Nc2ncc(F)c(Nc3ccc4c(c3)NC(=O)C(C)(C)O4)n2)cc1 [Cmpd 70] | 15 | 
CCN(CC)CCNC(=O)c1ccc(Nc2ncc(F)c(Nc3ccc4c(c3)NC(=O)C(CCO)O4)n2)cc1 (stereo not shown) [Cmpd 33] | 57 | 
COc1ccc(Nc2ncc(F)c(Nc3ccc4c(c3)NC(=O)CO4)n2)cc1Cl [Cmpd 75] | 14 | 
N#Cc1ccc(Nc2ncc(F)c(Nc3ccc(C#N)cc3)n2)cc1 [Cmpd 54] | 24 | 
NC(=O)c1ccc(Nc2ncc(F)c(Nc3ccc(C(N)=O)cc3)n2)cc1 [Cmpd 46] | 30 | 
COc1ccc(Nc2nc(Nc3cccc(-c4ncco4)c3)ncc2F)cc1OC [Cmpd 45] | 30 | 
Cc1noc(COc2ccc(Nc3nc(Nc4ccc(C(N)=O)c(O)c4)ncc3F)cc2)n1 [Cmpd 78] | 13 | 
CS(=O)(=O)Nc1ccc(Nc2ncc(F)c(Nc3ccc(NS(C)(=O)=O)cc3)n2)cc1 [Cmpd 64] | 19 | 
CC(C)Nc1nc(Nc2cccc(N3CCN(C)CC3)c2)ncc1F [Cmpd 11] |  | 38
CCN(CC)CCNC(=O)c1ccc(Nc2ncc(F)c(Nc3ccc(OC)c(Cl)c3)n2)cc1 [Cmpd 58] | 21 | 
O=[N+]([O-])c1cc(Nc2ccnc(Nc3ccc(Cl)c([N+](=O)[O-])c3)n2)ccc1Cl [Cmpd 62] | 19 | 
COc1ccc(Nc2nc(Nc3cccc(-c4nnc(C(C)(C)C)o4)c3)ncc2F)cc1OC [Cmpd 63] | 19 | 
CCN(CC)CCNC(=O)c1ccc(Nc2ncc(F)c(Nc3ccc(Cl)c(OC)c3)n2)cc1 [Cmpd 48] | 28 | 
COC(=O)CNC(=O)c1ccc(Nc2ncc(F)c(Nc3ccc(C(N)=O)cc3)n2)cc1 [Cmpd 73] | 14 | 
C[C@H]1Oc2ccc(Nc3nc(Nc4ccc(C(=O)NCC(=O)O)cc4)ncc3F)cc2NC1=O [Cmpd 26] |  | 10
Cc1cc(Nc2ncc(F)c(NC3CC(C)(C)N(C)C(C)(C)C3)n2)ccc1N1CCN(C)CC1 [Cmpd 49] | 26 | 
CNC(=O)COc1cccc(Nc2ncc(F)c(Nc3ccc(OC)c(CN(C)C)c3)n2)c1 [Cmpd 8] |  | 51
Oc1cccc(Nc2ncc(F)c(Nc3cccc(-c4nnc(-c5ccccc5)o4)c3)n2)c1 [Cmpd 12] |  | 36

Compound | IC50 Ratio (Syk/JAK) [1] | IC50 Ratio (Syk/JAK) [2]
CNC(=O)COc1cc(Nc2ncc(F)c(Nc3cccc(O)c3)n2)cc(OCC(=O)NC)c1 [Cmpd 31] | 74 | 
Cc1ccc(Nc2ccnc(Nc3ccc(C)c([N+](=O)[O-])c3)n2)cc1[N+](=O)[O-] [Cmpd 3] |  | 147
CNC(=O)c1cc(Nc2ncc(F)c(Nc3ccc(OC)c(Cl)c3)n2)ccc1N1CCN(C)CC1 [Cmpd 55] | 23 | 
COC(=O)CNC(=O)c1ccc(Nc2ncc(F)c(Nc3ccc(OCc4nc(C)no4)cc3)n2)cc1 [Cmpd 67] | 17 | 
CNS(=O)(=O)c1ccc(Nc2ncc(F)c(Nc3ccc(OC)c(OC)c3)n2)cc1OC [Cmpd 85] | 10 | 
CCNC(=O)Nc1ccc(Nc2ncc(F)c(Nc3ccc(NC(=O)NCC)cc3)n2)cc1 [Cmpd 9] |  | 47
COc1ccc(Nc2nc(Nc3ccc(N4CCN(C)CC4)c(C#N)c3)ncc2F)cc1Cl [Cmpd 36] | 43 | 
Cc1cc(Nc2ncc(F)c(NC3C=C[C@@H](C(N)=O)C3)n2)ccc1N1CCN(C)CC1 (stereo partly shown) [Cmpd 69] | 16 | 
CNC(=O)COc1cccc(Nc2ncc(F)c(Nc3ccc(OC)c(CN(C(=O)OC(C)(C)C)C(C)C)c3)n2)c1 [Cmpd 22] |  | 13
CCCCOc1ccc(Nc2nc(Nc3ccc4c(c3)OCCO4)ncc2F)cc1 [Cmpd 17] |  | 20
Fc1cnc(Nc2ccc3c(c2)OCCO3)nc1Nn1cccc1 [Cmpd 16] |  | 22
Fc1cnc(Nc2ccc3c(c2)OCCO3)nc1NC1CCCCC1 [Cmpd 19] |  | 15
CCN(CC)CCNC(=O)c1ccc(Nc2ncc(F)c(NC3CCCC3)n2)cc1 [Cmpd 38] | 39 | 
CNC(=O)n1ccc2ccc(Nc3nc(Nc4cc(C)cc(C)c4)ncc3F)cc21 [Cmpd 7] |  | 57
NC(=O)c1ccc(Nc2ncc(F)c(Nc3ccc4c(c3)NC(=O)C(CCO)O4)n2)cc1 (stereo not shown) [Cmpd 60] | 20 | 
NCCNC(=O)c1cc2cc(Nc3ncc(F)c(Nc4ccc5oc(C(=O)NCCN)cc5c4)n3)ccc2o1 [Cmpd 52] | 25 | 
Cc1cc(Nc2nc(Nc3ccc(C(N)=O)c(Cl)c3)ncc2F)ccc1N1CCN(C)CC1 [Cmpd 89] | 10 | 
COc1cc(OC)cc(N(C)c2nc(Nc3cc(C)cc(C)c3)ncc2F)c1 [Cmpd 35] | 44 | 
CNC(=O)CNC(=O)c1ccc(Nc2ncc(F)c(Nc3ccc(OC)c(Cl)c3)n2)cc1 [Cmpd 66] | 17 | 
CN1CCN(c2ccc(Nc3ncc(F)c(NC4CC(C)(C)N(C)C(C)(C)C4)n3)cc2Cl)CC1 [Cmpd 1] |  | 207
Cc1noc(COc2ccc(Nc3nc(Nc4ccc(C(N)=O)cc4)ncc3F)cc2)n1 [Cmpd 82] | 10 | 
COc1cc(Nc2nc(Nc3ccc(CN)cc3)ncc2F)cc(OC)c1 [Cmpd 76] | 14 | 

From patent US20060270694A1, “JAK kinase inhibitors and their uses” (Rigel Pharmaceuticals, Inc., priority 2005, published 2006)
